Assay [1] in a line: inhibition of Cryptococcus neoformans recombinant Can2 after 15 mins by stopped-flow CO2 hydration assay.
The target in another assay is T1, Carbonic anhydrase (Candida albicans (strain SC5314 / ATCC MYA-2876) (Yeast), UniProt Q5AJ71).
T1 sequence (Q5AJ71 whole entry): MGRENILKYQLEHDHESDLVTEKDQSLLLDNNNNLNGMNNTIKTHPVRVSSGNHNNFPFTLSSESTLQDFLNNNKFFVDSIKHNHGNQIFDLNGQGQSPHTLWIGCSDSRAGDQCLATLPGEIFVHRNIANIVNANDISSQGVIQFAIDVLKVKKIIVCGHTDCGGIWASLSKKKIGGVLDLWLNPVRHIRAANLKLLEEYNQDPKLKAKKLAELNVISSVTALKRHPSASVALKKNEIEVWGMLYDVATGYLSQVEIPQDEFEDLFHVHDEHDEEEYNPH
Kind of assay: inhibition of Candida albicans recombinant Nce103 after 15 mins by stopped-flow CO2 hydration assay.

The nature of assay [2]: Selectivity ratio of IC50 for human CA1 to IC50 for Cryptococcus neoformans Can2.
A short description of assay [3]: Selectivity ratio of IC50 for human CA2 to IC50 for Cryptococcus neoformans Can2.
Assay [4] deals with T2, Carbonic anhydrase (Candida albicans (strain SC5314 / ATCC MYA-2876) (Yeast)) (UniProt Q5AJ71).
T2 sequence (whole entry): T1 sequence (Q5AJ71 whole entry)
Kind of assay: Ratio of compound to acetazolamide activity for inhibition of Candida albicans recombinant Nce103.

Usually Ki stands for the equilibrium dissociation constant of an inhibitor or competing ligand from its target.

SMILES strings stand for the structures.

As for `NNC(=O)c1[nH]c2ccc(S(N)(=O)=O)cc2c1-c1cccc(Cl)c1`, the Ki in assay [1] was determined as 7.4 nM; at Carbonic anhydrase, 52 nM.
The corresponding values for `Cc1cccc(-c2c(C(=O)N[n+]3c(C)cc(C)cc3C)[nH]c3ccc(S(N)(=O)=O)cc23)c1.[O-][Cl+3]([O-])([O-])[O-]` are 6.1 nM and 64 nM.
On the same counts, the results for `Cc1cc(C)[n+](NC(=O)c2[nH]c3ccc(S(N)(=O)=O)cc3c2-c2ccccc2Br)c(C)c1.[O-][Cl+3]([O-])([O-])[O-]` are 12.1 nM and 45 nM.
For the compound `Cc1cc(C)[n+](NC(=O)c2[nH]c3ccc(S(N)(=O)=O)cc3c2-c2ccccc2C)c(C)c1.[O-][Cl+3]([O-])([O-])[O-]`, the Ki is 6.5 nM in assay [1] and 62 nM on Carbonic anhydrase.
For the compound `NNC(=O)c1[nH]c2ccc(S(N)(=O)=O)cc2c1-c1ccccc1Cl`, the figures for the inhibition constant Ki (in assay [1]; at Carbonic anhydrase) were 8 nM and 45 nM, respectively. Besides, the Ratio IC50 in assay [2] turned out to be 80; in assay [3] it was 4.8.
For the compound `Cc1cccc(-c2c(C(=O)NN)[nH]c3ccc(S(N)(=O)=O)cc23)c1`, the inhibition constant (Ki) in assay [1] is 9.1 nM; at Carbonic anhydrase, 43 nM. Moreover, the figures for the Ratio IC50 in assay [2] and in assay [3] were 80.2 and 5.1, respectively.
Regarding `COc1cccc(-c2c(C(=O)N[n+]3c(C)cc(C)cc3C)[nH]c3ccc(S(N)(=O)=O)cc23)c1.[O-][Cl+3]([O-])([O-])[O-]`, the Ki in assay [1] was determined as 8.3 nM; on Carbonic anhydrase, 119 nM.
Turning to `COc1cccc(-c2c(C(=O)NN)[nH]c3ccc(S(N)(=O)=O)cc23)c1`, the inhibitory constant (Ki) in assay [1] worked out at 12 nM; at Carbonic anhydrase, 128 nM.
The corresponding values for `Cc1cc(C)[n+](NC(=O)c2[nH]c3ccc(S(N)(=O)=O)cc3c2-c2cccc(Cl)c2)c(C)c1.[O-][Cl+3]([O-])([O-])[O-]` are 4.4 nM and 31 nM.
On the same counts, the results for `NNC(=O)c1[nH]c2ccc(S(N)(=O)=O)cc2c1-c1ccc(Br)cc1` are 118 nM and 94 nM.
For `NNC(=O)c1[nH]c2ccc(S(N)(=O)=O)cc2c1-c1cccc(Br)c1`, the Ki in assay [1] was 93 nM; on Carbonic anhydrase, 87 nM.
In the case of `NNC(=O)c1[nH]c2ccc(S(N)(=O)=O)cc2c1-c1c(F)c(F)c(F)c(F)c1F`, in assay [4], the Ratio worked out at 17.6. Moreover, the Ki in assay [1] is 103 nM.
Consider `NNC(=O)c1[nH]c2ccc(S(N)(=O)=O)cc2c1-c1ccccc1F`, for which the inhibition constant Ki stood at 7.9 nM in assay [1] and 47 nM on Carbonic anhydrase.
On the same counts, the results for `Cc1cc(C)[n+](NC(=O)c2[nH]c3ccc(S(N)(=O)=O)cc3c2-c2ccc(F)cc2)c(C)c1.[O-][Cl+3]([O-])([O-])[O-]` are 8.7 nM and 21 nM.
For the compound `Cc1cc(C)[n+](NC(=O)c2[nH]c3ccc(S(N)(=O)=O)cc3c2-c2cccc(F)c2)c(C)c1.[O-][Cl+3]([O-])([O-])[O-]`, the values for the inhibition constant Ki (in assay [1]; on Carbonic anhydrase) were 8.3 nM and 24 nM, respectively.
The corresponding values for `NNC(=O)c1[nH]c2ccc(S(N)(=O)=O)cc2c1-c1cccc(F)c1` are 7.2 nM and 54 nM.
The corresponding values for `Cc1ccccc1-c1c(C(=O)NN)[nH]c2ccc(S(N)(=O)=O)cc12` are 9.2 nM and 78 nM.
On to `Cc1cc(C)[n+](NC(=O)c2[nH]c3ccc(S(N)(=O)=O)cc3c2-c2c(F)c(F)c(F)c(F)c2F)c(C)c1.[O-][Cl+3]([O-])([O-])[O-]`, for which the figures for the Ki (in assay [1]; at Carbonic anhydrase) were 60.1 nM and 5.1 nM, respectively.
In the case of `Cc1ccc(-c2c(C(=O)N[n+]3c(C)cc(C)cc3C)[nH]c3ccc(S(N)(=O)=O)cc23)cc1.[O-][Cl+3]([O-])([O-])[O-]`, the Ki in assay [1] stood at 5.9 nM; on Carbonic anhydrase, 41 nM.
On the same counts, the results for `Cc1cc(C)[n+](NC(=O)c2[nH]c3ccc(S(N)(=O)=O)cc3c2-c2ccccc2Cl)c(C)c1.[O-][Cl+3]([O-])([O-])[O-]` are 15.4 nM and 33 nM.
On the same counts, the results for `Cc1ccc(-c2c(C(=O)NN)[nH]c3ccc(S(N)(=O)=O)cc23)cc1` are 10.5 nM and 52 nM.
The corresponding values for `Cc1cc(C)[n+](NC(=O)c2[nH]c3ccc(S(N)(=O)=O)cc3c2-c2cccc(Br)c2)c(C)c1.[O-][Cl+3]([O-])([O-])[O-]` are 14.3 nM and 48 nM.
For the compound `Cc1cc(C)[n+](NC(=O)c2[nH]c3ccc(S(N)(=O)=O)cc3c2-c2ccc(Cl)cc2)c(C)c1.[O-][Cl+3]([O-])([O-])[O-]`, the inhibition constant (Ki) in assay [1] is 3.1 nM; at Carbonic anhydrase, 29 nM.
Consider `Cc1cc(C)[n+](NC(=O)c2[nH]c3ccc(S(N)(=O)=O)cc3c2-c2ccccc2)c(C)c1.[O-][Cl+3]([O-])([O-])[O-]`, for which the inhibitory constant (Ki) in assay [1] is 16.5 nM; at Carbonic anhydrase, 42 nM.
For the compound `NNC(=O)c1[nH]c2ccc(S(N)(=O)=O)cc2c1-c1ccccc1Br`, the Ki in assay [1] amounted to 62 nM; on Carbonic anhydrase, 81 nM.
The corresponding values for `NNC(=O)c1[nH]c2ccc(S(N)(=O)=O)cc2c1-c1ccc(F)cc1` are 8.6 nM and 61 nM.
On the same counts, the results for `NNC(=O)c1[nH]c2ccc(S(N)(=O)=O)cc2c1-c1ccc(Cl)cc1` are 70 nM and 55 nM.
On the same counts, the results for `Cc1cc(C)[n+](NC(=O)c2[nH]c3ccc(S(N)(=O)=O)cc3c2-c2ccccc2F)c(C)c1.[O-][Cl+3]([O-])([O-])[O-]` are 16.2 nM and 19 nM.
`Cc1cc(C)[n+](NC(=O)c2[nH]c3ccc(S(N)(=O)=O)cc3c2-c2ccc(Br)cc2)c(C)c1.[O-][Cl+3]([O-])([O-])[O-]`: the Ki in assay [1] is 10.9 nM; at Carbonic anhydrase, 53 nM.
The corresponding values for `NNC(=O)c1[nH]c2ccc(S(N)(=O)=O)cc2c1-c1ccccc1` are 72 nM and 85 nM.

The values above are taken from ChEMBL document CHEMBL1156996 (Bioorg Med Chem Lett, 2010).
